Patent US20140030350A1, “Drug Delivery Systems” (BIOCOMPATIBLES UK LIMITED, priority 2011, published 2014)

Experiment: UV/Vis scan of DTT effect on doxorubicin over time
Assay type: physicochemical
Settings: high concentration of DTT, 17 hours
Procedure: Diothiothreitol (DTT) is a well known mild disulfide reducing agent and is used to maintain disulfide groups in their reduced thiol state. […] A high concentration of DTT was added to doxorubicin and was scanned at 1 hour time points using a UV/Vis spectrophotometer.

Change to the absorbance of doxorubicin on exposure to DTT: very little change
Compound: COc1cccc2c1C(=O)c1c(O)c3c(c(O)c1C2=O)C[C@@](O)(C(=O)CO)C[C@@H]3O[C@H]1C[C@H](N)[C@H](O)[C@H](C)O1 [doxorubicin]
